According to publication PMC10620772, “Design, synthesis, and biological evaluation of new pyrimidine-5-carbonitrile derivatives as novel anti-cancer, dual EGFR^WT/COX-2 inhibitors with docking studies” (RSC Advances, 2023):

What was measured:
Experiment in all cases: NCI60 antitumor screening
Assay type in all cases: cell-based, human
[1] = tested on: UO-31; settings: Homo sapiens; 10 μM single dose; UO-31 (renal cancer); read-out: growth inhibition percent (GI%)
[2] = tested on: BT-549; settings: Homo sapiens; 10 μM single dose; BT-549 (breast cancer); read-out: growth inhibition percent (GI%)
[3] = tested on: NCI-H522; settings: Homo sapiens; 10 μM single dose; NCI-H522 (non-small cell lung cancer); read-out: growth inhibition percent (GI%)
[4] = tested on: HT29; settings: Homo sapiens, HT-29; 10 μM single dose; HT29 (colon cancer); read-out: growth inhibition percent (GI%)
[5] = tested on: CCRF-CEM; settings: Homo sapiens; 10 μM single dose; CCRF-CEM (leukaemia); read-out: growth inhibition percent (GI%)
[6] = tested on: HCT-15; settings: Homo sapiens; 10 μM single dose; HCT-15 (colon cancer); read-out: growth inhibition percent (GI%)
[7] = tested on: RPMI-8226; settings: Homo sapiens; 10 μM single dose; RPMI-8226 (leukaemia); read-out: growth inhibition percent (GI%)
[8] = tested on: OVCAR-4; settings: Homo sapiens; 10 μM single dose; OVCAR-4 (ovarian cancer); read-out: growth inhibition percent (GI%)
[9] = tested on: T-47D; settings: Homo sapiens, T47D; 10 μM single dose; T-47D (breast cancer); read-out: growth inhibition percent (GI%)
[10] = tested on: U251; settings: Homo sapiens, U-251; 10 μM single dose; U251 (CNS cancer); read-out: growth inhibition percent (GI%)
[11] = tested on: HS 578T; settings: Homo sapiens; 10 μM single dose; HS 578T (breast cancer); read-out: growth inhibition percent (GI%)
[12] = tested on: SF-295; settings: Homo sapiens; 10 μM single dose; SF-295 (CNS cancer); read-out: growth inhibition percent (GI%)
[13] = tested on: HCC-2998; settings: Homo sapiens; 10 μM single dose; HCC-2998 (colon cancer); read-out: growth inhibition percent (GI%)
[14] = tested on: OVCAR-3; settings: Homo sapiens; 10 μM single dose; OVCAR-3 (ovarian cancer); read-out: growth inhibition percent (GI%)
[15] = tested on: HCT-116; settings: Homo sapiens; 10 μM single dose; HCT-116 (colon cancer); read-out: growth inhibition percent (GI%)
[16] = tested on: MOLT-4; settings: Homo sapiens; 10 μM single dose; MOLT-4 (leukaemia); read-out: growth inhibition percent (GI%)
[17] = tested on: MALME-3M; settings: Homo sapiens; 10 μM single dose; MALME-3M (melanoma); read-out: growth inhibition percent (GI%)
[18] = tested on: 786–0; settings: Homo sapiens; 10 μM single dose; 786–0 (renal cancer); read-out: growth inhibition percent (GI%)
[19] = tested on: DU-145; settings: Homo sapiens, DU-145; read-out: growth inhibition percent (GI%)
[20] = tested on: HOP-62; settings: Homo sapiens; 10 μM single dose; HOP-62 (non-small cell lung cancer); read-out: growth inhibition percent (GI%)
[21] = tested on: SNB-75; settings: Homo sapiens; 10 μM single dose; SNB-75 (CNS cancer); read-out: growth inhibition percent (GI%)
[22] = tested on: A549/ATCC; settings: Homo sapiens; 10 μM single dose; A549/ATCC (non-small cell lung cancer); read-out: growth inhibition percent (GI%)
[23] = tested on: EKVX; settings: Homo sapiens; 10 μM single dose; EKVX (non-small cell lung cancer); read-out: growth inhibition percent (GI%)
[24] = tested on: K-562; settings: Homo sapiens; 10 μM single dose; (leukaemia); read-out: growth inhibition percent (GI%)
[25] = tested on: MDA-MB-468; settings: Homo sapiens; 10 μM single dose; MDA-MB-468 (breast cancer); read-out: growth inhibition percent (GI%)
[26] = tested on: SK-MEL-2; settings: Homo sapiens; 10 μM single dose; SK-MEL-2 (melanoma); read-out: growth inhibition percent (GI%)
[27] = tested on: UACC-62; settings: Homo sapiens; 10 μM single dose; UACC-62 (melanoma); read-out: growth inhibition percent (GI%)
[28] = tested on: HOP-92; settings: Homo sapiens; 10 μM single dose; HOP-92 (non-small cell lung cancer); read-out: growth inhibition percent (GI%)
[29] = tested on: MDA-MB-435; settings: Homo sapiens; 10 μM single dose; MDA-MB-435 (melanoma); read-out: growth inhibition percent (GI%)
[30] = tested on: NCI-H226; settings: Homo sapiens; 10 μM single dose; NCI-H226 (non-small cell lung cancer); read-out: growth inhibition percent (GI%)
[31] = tested on: KM12; settings: Homo sapiens; 10 μM single dose; KM12 (colon cancer); read-out: growth inhibition percent (GI%)
[32] = tested on: M14; settings: Homo sapiens; 10 μM single dose; M14 (melanoma); read-out: growth inhibition percent (GI%)
[33] = tested on: NCI-H460; settings: Homo sapiens; 10 μM single dose; NCI-H460 (non-small cell lung cancer); read-out: growth inhibition percent (GI%)
[34] = tested on: PC-3; settings: Homo sapiens; 10 μM single dose; PC-3 (prostate cancer); read-out: growth inhibition percent (GI%)
[35] = tested on: SN12C; settings: Homo sapiens; 10 μM single dose; SN12C (renal cancer); read-out: growth inhibition percent (GI%)
[36] = tested on: NCI-H23; settings: Homo sapiens; 10 μM single dose; NCI-H23 (non-small cell lung cancer); read-out: growth inhibition percent (GI%)
[37] = tested on: IGROV1; settings: Homo sapiens, IGROV-1; 10 μM single dose; IGROV1 (ovarian cancer); read-out: growth inhibition percent (GI%)
[38] = tested on: SW-620; settings: Homo sapiens; 10 μM single dose; SW-620 (colon cancer); read-out: growth inhibition percent (GI%)
[39] = tested on: OVCAR-5; settings: Homo sapiens; 10 μM single dose; OVCAR-5 (ovarian cancer); read-out: growth inhibition percent (GI%)

For `Cc1ccc(CSc2nc(-c3ccc(F)cc3)c(C#N)c(N3CCN(c4ccccc4)CC3)n2)cc1` [4p, 4-(4-Fluorophenyl)-2-((4-methylbenzyl)thio)-6-(4-phenylpiperazin-1-yl) pyrimidine-5-carbonitrile], the inhibition at 10 µM [1] was < 10%, the inhibition at 10 µM [2] was < 10% and the inhibition at 10 µM [3] was 13.8%. The inhibition at 10 µM [4] was < 10%, the inhibition at 10 µM [5] was < 10% and the inhibition at 10 µM [6] was 13.9%. For the same compound, the inhibition at 10 µM [7] was 18.4%, the inhibition at 10 µM [8] was 10.6% and the inhibition at 10 µM [9] was 12.3%. For the same compound, the inhibition at 10 µM [10] was < 10%, the inhibition at 10 µM [11] was < 10% and the inhibition at 10 µM [12] was < 10%. For the same compound, the inhibition at 10 µM [13] was < 10%, the inhibition at 10 µM [14] was < 10% and the inhibition at 10 µM [15] was 15.1%. For the same compound, the inhibition at 10 µM [16] was < 10%, the inhibition at 10 µM [17] was < 10% and the inhibition at 10 µM [18] was < 10%. For the same compound, the inhibition at 10 µM [19] was < 10%, the inhibition at 10 µM [20] was < 10% and the inhibition at 10 µM [21] was 14.8%. It also gave an inhibition at 10 µM [22] of 11.6%, an inhibition at 10 µM [23] of 20.3% and an inhibition at 10 µM [24] of 18%. For the same compound, the inhibition at 10 µM [25] was 13.6%, the inhibition at 10 µM [26] was 15.1% and the inhibition at 10 µM [27] was 29.7%. The inhibition at 10 µM [28] was < 10%, the inhibition at 10 µM [29] was 10.3% and the inhibition at 10 µM [30] was < 10%. For the same compound, the inhibition at 10 µM [31] was < 10%, the inhibition at 10 µM [32] was 11% and the inhibition at 10 µM [33] was < 10%. For the same compound, the inhibition at 10 µM [34] was 25.1%, the inhibition at 10 µM [35] was < 10% and the inhibition at 10 µM [36] was < 10%. The inhibition at 10 µM [37] was < 10%, the inhibition at 10 µM [38] was < 10% and the inhibition at 10 µM [39] was < 10%.
